In patent US20020058244A1, “Method for detecting uracil biosynthesis inhibitors and their use as herbicides” (priority 2000, published 2002):

What was measured:
ODCase = target: T1, ODCase (Rattus norvegicus, UniProt A0ACM8Q7Z8); conditions: rat brain tissue; cited from earlier work
T1 construct: host or cells: rat brain tissue

uridine phosphorylase = conditions: salvage pathway; cited from earlier work
OPRTase = target: T2, OPRTase (Rattus norvegicus, UniProt A0ACM8Q7Z8); conditions: rat brain tissue; cited from earlier work
T2 construct: host or cells: rat brain tissue
T2 sequence (A0ACM8Q7Z8 1-481): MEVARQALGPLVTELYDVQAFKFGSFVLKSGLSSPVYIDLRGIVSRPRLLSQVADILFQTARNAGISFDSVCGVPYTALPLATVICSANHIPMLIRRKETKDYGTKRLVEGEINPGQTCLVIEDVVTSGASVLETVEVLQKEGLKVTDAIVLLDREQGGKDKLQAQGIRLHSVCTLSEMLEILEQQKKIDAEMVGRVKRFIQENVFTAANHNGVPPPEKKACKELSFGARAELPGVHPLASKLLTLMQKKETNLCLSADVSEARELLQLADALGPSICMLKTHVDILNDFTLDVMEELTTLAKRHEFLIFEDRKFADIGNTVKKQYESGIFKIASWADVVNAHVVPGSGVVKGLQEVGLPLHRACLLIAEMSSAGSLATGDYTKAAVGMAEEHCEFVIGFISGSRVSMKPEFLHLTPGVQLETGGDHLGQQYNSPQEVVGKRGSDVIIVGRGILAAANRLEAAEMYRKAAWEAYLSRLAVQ

whole plant = assay: Whole plant injury by barbiturate; conditions: in vivo
[1] = target: T3, dihyroorotate dehydrogenase (DHOD) (Rattus norvegicus, UniProt Q63707); conditions: rat brain tissue; cited from earlier work
T3 construct: host or cells: rat brain tissue

OPRTase/ODCase = assay: In vitro enzymatic conversion of [14C]-orotate to UMP, cell free extract from corn root tissue; assay type: biochemical
Experimental: Etiolated corn roots and shoots or soybean suspension cells were used as tissue. Corn seedlings were germinated on vermiculite for 4 days in the dark at 26_C. and roots and shoots harvested separately. The soybean cells were grown in media consisting of Muashige and Skoog salts (Physiol. Plant (1962) 15:473-497) purchased from Gibco/BRL, vitamins (glycine 2 mg/L, thiamine 0.1 mg/L, nicotinic acid 0.5 mg/L, pyridoxine-HCl 0.5 mg/L), myo-inositol (100 mg/L), 2,4-D ([…]), and 30 g/L sucrose. Cell cultures are grown at 25° C. with gentle shaking. Cultures were transfered every 7 days to new growth media.
Approximately 5-10 g plant tissue were ground in liquid nitrogen and resuspended in 1:2 (w/v) homogenization buffer (30 mM KPO4^−; 25 mM […], 5 mM MgCl2, 5 mM ascorbic acid, pH 7.2). The homogenate was centrifuged at 10,000 g for 20 min, and the supernatant desalted using BioRad columns. The desalted supernatant was used for OPRTase/ODCase enzyme assays. For DHOD enzyme extraction, the supernatant was further centrifuged at 100,000 g for 45 min to obtain a microsomal pellet. The microsomal pellet was resuspended in 3-4 ml resuspension buffer (70 mM Tris-base, pH 7.4) containing 1% Triton X-100.
All enzyme assays were performed according to Rawls, J. M. (1978) Anal. Biochem. 86 (1): 107-117 and Cleaveland et al. (1995). Biochem. Pharm. 49(7):947-954. Enzyme assays were performed in a total volume of 200 ul with 1 uM [^14C]carbamoyl aspartate, [^14C]dihydroorotate or [^14C]orotate as substrates, and 1-5 mM probe compound or barbiturate as inhibitors. The [^14C]carbamoyl aspartate and [^14C]dihydroorotate assay was performed using a potassium phosphate buffer, pH 7.4 with 12 mM NAD^+, and 10 mM MgCl2. […] Over time, 25 ul aliquots were taken from the reaction tube and boiled for 5 min to stop the reaction. Samples were spotted onto cellulose TLC plates and run using 0.1 M potassium phosphate buffer, 100% ammonium sulfate, and 1-propanol (10:6:1). Plates were developed using a TLC plate radioisotope detector. Orotate and UMP standards were run next to unknowns to identify the conversion of [^14C]orotate to [^14C]UMP in the enzyme assay.

T3 sequence (Q63707 whole entry): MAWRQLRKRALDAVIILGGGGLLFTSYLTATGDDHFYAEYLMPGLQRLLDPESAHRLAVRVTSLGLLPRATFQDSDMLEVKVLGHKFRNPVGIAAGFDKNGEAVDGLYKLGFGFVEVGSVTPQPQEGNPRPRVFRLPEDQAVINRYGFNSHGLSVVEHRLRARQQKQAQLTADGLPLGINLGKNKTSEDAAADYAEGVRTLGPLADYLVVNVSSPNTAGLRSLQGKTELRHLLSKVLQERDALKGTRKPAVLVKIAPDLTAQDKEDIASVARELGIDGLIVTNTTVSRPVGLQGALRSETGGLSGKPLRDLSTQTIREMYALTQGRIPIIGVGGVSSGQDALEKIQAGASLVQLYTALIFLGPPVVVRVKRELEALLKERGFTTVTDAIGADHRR

O=C1CC(=O)NC(=O)N1 [barbiturate, reference compound]
Ki (ODCase): 75 µM | Ki (uridine phosphorylase): 786 µM | Ki (OPRTase): 18 µM | whole plant injury (whole plant): does not cause whole plant injury | Ki [1]: 412 µM | inhibition of the conversion of orotic acid to UMP (OPRTase/ODCase; 1 mM): 80% | inhibition of the conversion of orotic acid to UMP (OPRTase/ODCase; 2 mM): 100% | radiolabeled orotate converted to UMP (OPRTase/ODCase; 15 minutes after treatment, 100 μM PRPP, untreated control 55%): 20% | inhibition of the conversion of [14C]-orotate to UMP (OPRTase/ODCase; FIG. 10, concentration not stated): 80% | effect on OPRTase/ODCase activity (conversion of [14C]-orotate to UMP) (OPRTase/ODCase; cell free extract): inhibits | IC50 (OPRTase/ODCase; corn root cell free extract, read-out: concentration at which there is 50% inhibition of UMP synthesis (IC50)): < 270 µM
